The source of these data is US11766414B2, “Compositions, delivery systems, and methods useful in tumor therapy” (Indi Molecular, Inc., priority 2020, dated 2023).

The test system of data set [1] is OVCAR3 FOLR1+ cells (PC-3 FOLR1− cells as negative line). Briefly: Flow cytometry binding to FOLR1 (+) and FOLR1 (−) cell lines. Conditions: OVCAR3 vs PC-3, flow cytometry. In kind it is cell-based, human. The procedure: Both the kyeet (SEQ ID NO:9) and hshta (SEQ ID NO:6)-derived biligands were tested by flow cytometry for binding to FOLR1 (+) and FOLR1 (−) cell lines (FIGS. 6 and 7). The human ovarian adenocarcinoma-derived cell line OVCAR3 has robust FOLR1 expression and was selected as the FOLR1 (+) cell line. The human prostate adenocarcinoma-derived cell line PC-3 was selected as a FOLR1 (−) cell line.

Data set [2] concerns the target T1, FOLR1 (Homo sapiens, UniProt P15328). The data set is described as follows: Folic acid competition ELISA. In kind it is binding. The procedure:
A competition experiment was conducted to further understand the binding kinetics of the lead heterobiligand (folate-hshta (SEQ ID NO:6) Nterm heterobiligand).
Background: An ELISA detects its analyte on a solid surface through an enzyme-linked reagent.

The target in data set [3] is T1, FOLR1. Briefly: ELISA assay of FOLR1 binding. The text has this: FIG. 5 is a diagram of ELISA assay of FOLR1 binding of heterobiligands.
Data set [4] relates to OVCAR3 cells. Briefly: Cell penetration / internalization assays (acid wash flow cytometry, fluorescence microscopy). In kind it is cell-based, human. The procedure: FIG. 10 is a diagram of an assay for assessing cell internalization FOLR1 heterobiligands.
The folate-hshta (SEQ ID NO:6) Nterm heterobiligand was also evaluated in cell penetration imaging assays (FIG. 10). OVCAR3 and PC-3 cells were incubated with the test article at 37° C. for 1 hour. Flow cytometry analysis of the resulting treated cells indicated strong binding to FOLR1 (+) cells. To understand the proportion bound to the surface but not internalized, the cells were briefly washed with acid to liberate the non-internalized peptide.
To further understand intracellular trafficking of the Nterm heterobiligand, these dye-labeled compounds were imaged by fluorescence microscopy. The cells were counterstained with BioTracker 490, which stains membranes, and Rab5a+, an endosomal stain. […] Low levels of DyLight650 was detected within PC-3 (FOLR1−) cells. Taken together, internalization of the heterobiligand appears to be receptor driven and selective for FOLR1 (+) cells.
In general terms: Flow cytometry measures light scatter and fluorescence of single cells or particles in a stream.

Data set [5] concerns OVCAR3 cells. Briefly: Competition at the cellular level with exogenous folic acid (flow cytometry). In kind it is cell-based, human. The text has this:
Competition at the cellular level was also probed.

In data set [6] the target is mouse recombinant FOLR1 (rMuFOLR1) (Mus musculus, UniProt P35846). The data set is described as follows: ELISA cross reactivity with mouse recombinant FOLR1. The format is binding. Conditions: cross reactivity experiment. An excerpt: Further evaluation of the folate-hshta (SEQ ID NO:6) Nterm heterobiligand depended on cross reactivity with mouse recombinant FOLR1 (rMuFOLR1). The heterobiligand binds to both species' variants of FOLR1 with high affinity. This observation was expected given the high homology between the two variants (approximately 92%).
Chain of mouse recombinant FOLR1 (rMuFOLR1) (P35846 25-232): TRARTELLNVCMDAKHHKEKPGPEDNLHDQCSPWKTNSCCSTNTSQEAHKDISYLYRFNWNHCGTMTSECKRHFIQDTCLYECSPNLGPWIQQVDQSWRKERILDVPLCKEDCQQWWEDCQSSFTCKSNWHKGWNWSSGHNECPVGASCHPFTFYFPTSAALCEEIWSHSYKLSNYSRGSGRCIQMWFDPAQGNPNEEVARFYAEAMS

For data set [7] the following is noted: human plasma.
Experimental: (§1) Plasma was thawed in a 37° C. water bath. Residual clots were removed via centrifugation at 4000 rpm for 5 minutes. The pH of the plasma was adjusted to 7.4 if required. Test articles were diluted to 100 μM by diluting a 1 mM working solution (in DMSO) with 45% methanol in water. To 98 μL of plasma was added 2 μL of the 100 μM solution, resulting in 2 μM final concentration of the test article. Samples were incubated at 37° C. in a water bath. At the indicated time points (0, 10, 30, 60, 120 minutes) 100 μL of 4% H3PO4 was added followed by 800 μL of stop solution (200 ng/mL tolbutamide and 200 ng/mL labetalol in 100% acetonitrile). The samples were centrifuged and the plasma protein-free supernatant (100 μL) was subjected to LC-MS/MS analysis.
The conditions of data set [8]: human plasma. This is another data set of the same source.
Experimental: as §1
The conditions of data set [9]: mouse.
Experimental: as §1

Read-outs that look alike come from different tables or passages of the source. Starred links: 1 amine or outer side, 2 acyl side, 3 side chain; linkers in the order of their positions; H or OH if unused. Positions of bridges follow the written chain, without caps; N, C: chain ends. Non-standard residues stand in square brackets, D forms with d. Residues, ends and D or L forms follow the SMILES beside them. Triazole bridges read from a SMILES are 1,4-linked. *: point of attachment. DOTA = O=C(O)CN1CCN(CC(=O)O)CCN(CC(=O)*)CCN(CC(=O)O)CC1; Pteroyl = Nc1nc2ncc(CNc3ccc(C(=O)*)cc3)nc2c(=O)[nH]1; Biotin = O=C1N[C@H]2[C@H](CS[C@H]2CCCCC(=O)*)N1; PEG10 = NCCOCCOCCOCCOCCOCCOCCOCCOCCOCCOCCC(=O)O; Lys(N3) = [N-]=[N+]=NCCCC[C@H](N)C(=O)O; γGlu = O=C(O)[C@H](CCC(=O)[*:2])N[*:1]; Pra = C#CC[C@H](N)C(=O)O

T1 sequence (P15328 25-234): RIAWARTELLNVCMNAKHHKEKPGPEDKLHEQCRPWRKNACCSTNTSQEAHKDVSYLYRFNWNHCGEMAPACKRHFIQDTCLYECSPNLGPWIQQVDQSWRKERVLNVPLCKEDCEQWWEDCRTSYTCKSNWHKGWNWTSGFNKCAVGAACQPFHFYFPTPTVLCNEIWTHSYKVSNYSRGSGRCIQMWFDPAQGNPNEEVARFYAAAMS

What is called EC50 is the concentration giving half of the maximal effect. As for `C[C@H](O)[C@H]1NC(=O)[C@@H](Cc2c[nH]cn2)NC(=O)[C@@H](CO)NC(=O)[C@@H](Cc2c[nH]cn2)NC(=O)[C@@H](NC(=O)CC[C@H](NC(=O)c2ccc(NCc3cnc4nc(N)[nH]c(=O)c4n3)cc2)C(=O)O)Cc2cn(nn2)CCCC[C@@H](C(=O)NCCOCCOCCOCCOCCOCCOCCOCCOCCOCCOCCC(=O)NCCOCCOCCOCCOCCOCCOCCOCCOCCOCCOCCC(=O)N[C@@H](CCCCNC(=O)CCCC[C@@H]2SC[C@@H]3NC(=O)N[C@@H]32)C(N)=O)NC(=O)[C@@H](C)NC1=O` [Folate-hshta Nterm, Folate-hshta-PEG10-PEG10-K(Biotin)] ({Pteroyl-γGlu}-[Pra][dH][dS][dH][dT][dA][Lys(N3)][PEG10][PEG10]K(Biotin)-NH2; triazole 1-7), in [1], the “binding selectivity for FOLR1 (+) cells over FOLR1 (−) cells” value is “high selectivity”. Further, the “binding affinity of the heterobiligand with folic acid doped in” value on FOLR1 [2] (folic acid from 0 to 500 nM) was “virtually unchanged”. Besides, the “binding of the heterobiligand with folic acid doped in” value on FOLR1 [2] (folic acid greater than 500 nM) is reported as “partially compete away”. In addition, on FOLR1 [3] (ELISA), the “greater affinity than folate itself” value is roughly 30 fold. Besides, the EC50 at FOLR1 [3] (biotin-labeled constructs with MPBA or DOTA tag, read-out: EC50) was found to be 0.065 nM; at FOLR1 [3] (cross reactivity experiment, read-out: Ec50, Human FOLR1), 0.35 nM; in [6], 0.33 nM. In addition, the “percentage of positively stained cells” value in the data set with OVCAR3 cells [4] (OVCAR3, 37° C. 1 hour, before acid treatment) is recorded as 73.4%; in the data set with OVCAR3 cells [4] (OVCAR3, following acid treatment) it was 54.2%. The “percentage of OVCAR3 cells binding” value with OVCAR3 cells [5] (0.1 μg/mL folate) was 57%; with OVCAR3 cells [5] (no folate) it was 76.6%.

The term half-life denotes how long it takes for the measured level to halve. As to `C[C@H](O)[C@H]1NC(=O)[C@@H](Cc2cnc[nH]2)NC(=O)[C@@H](CO)NC(=O)[C@@H](Cc2cnc[nH]2)NC(=O)[C@@H](NC(=O)CC[C@H](NC(=O)c2ccc(NCc3cnc4nc(N)[nH]c(=O)c4n3)cc2)C(=O)O)Cc2cn(nn2)CCCC[C@@H](C(=O)NCC(=O)N[C@@H](Cc2ccccc2)C(=O)N[C@@H](CCCCNC(=O)CN2CCN(CC(=O)O)CCN(CC(=O)O)CCN(CC(=O)O)CC2)C(=O)O)NC(=O)[C@@H](C)NC1=O` [compound 7327, folate-hshta-Gly-Phe-Lys(DOTA)] ({Pteroyl-γGlu}-[Pra][dH][dS][dH][dT][dA][Lys(N3)]GFK(DOTA)-OH; triazole 1-7), the “Plasma Stability (t 1/2), Hu” value in data set [7] is reported as “Hu: >6937.7 min”. The half-life in data set [8] is greater than 115 h. Besides, in data set [9], the “Plasma Stability (t 1/2), Mu” value is reported as “Mu: >6937.7 min”.
